Source: PMC4834642, “Orthogonal ring-closing alkyne and olefin metathesis for the synthesis of small GTPase-targeting bicyclic peptides” (Nature Communications, 2016)
Bridge positions count the residues as written; N and C are the ends. Square brackets hold non-standard residues; d marks the D form. Peptide text beside a SMILES is read from it. S5 = C=CCCC[C@](C)(N)C(=O)O

T1: Rab8a6-176(GppNHp) (Homo sapiens, UniProt P61006)
T1 construct: Expression and purification of Rab8a6-176 was performed analog to full-length Rab8a; made in house
T1 sequence (P61006 6-176): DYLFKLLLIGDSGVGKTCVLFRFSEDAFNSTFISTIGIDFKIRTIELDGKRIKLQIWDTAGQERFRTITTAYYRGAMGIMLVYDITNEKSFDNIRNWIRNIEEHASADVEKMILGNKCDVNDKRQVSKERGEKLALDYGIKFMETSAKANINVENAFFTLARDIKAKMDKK

T2: peptide 28 (Homo sapiens, UniProt Q6IQ26)
T2 chain: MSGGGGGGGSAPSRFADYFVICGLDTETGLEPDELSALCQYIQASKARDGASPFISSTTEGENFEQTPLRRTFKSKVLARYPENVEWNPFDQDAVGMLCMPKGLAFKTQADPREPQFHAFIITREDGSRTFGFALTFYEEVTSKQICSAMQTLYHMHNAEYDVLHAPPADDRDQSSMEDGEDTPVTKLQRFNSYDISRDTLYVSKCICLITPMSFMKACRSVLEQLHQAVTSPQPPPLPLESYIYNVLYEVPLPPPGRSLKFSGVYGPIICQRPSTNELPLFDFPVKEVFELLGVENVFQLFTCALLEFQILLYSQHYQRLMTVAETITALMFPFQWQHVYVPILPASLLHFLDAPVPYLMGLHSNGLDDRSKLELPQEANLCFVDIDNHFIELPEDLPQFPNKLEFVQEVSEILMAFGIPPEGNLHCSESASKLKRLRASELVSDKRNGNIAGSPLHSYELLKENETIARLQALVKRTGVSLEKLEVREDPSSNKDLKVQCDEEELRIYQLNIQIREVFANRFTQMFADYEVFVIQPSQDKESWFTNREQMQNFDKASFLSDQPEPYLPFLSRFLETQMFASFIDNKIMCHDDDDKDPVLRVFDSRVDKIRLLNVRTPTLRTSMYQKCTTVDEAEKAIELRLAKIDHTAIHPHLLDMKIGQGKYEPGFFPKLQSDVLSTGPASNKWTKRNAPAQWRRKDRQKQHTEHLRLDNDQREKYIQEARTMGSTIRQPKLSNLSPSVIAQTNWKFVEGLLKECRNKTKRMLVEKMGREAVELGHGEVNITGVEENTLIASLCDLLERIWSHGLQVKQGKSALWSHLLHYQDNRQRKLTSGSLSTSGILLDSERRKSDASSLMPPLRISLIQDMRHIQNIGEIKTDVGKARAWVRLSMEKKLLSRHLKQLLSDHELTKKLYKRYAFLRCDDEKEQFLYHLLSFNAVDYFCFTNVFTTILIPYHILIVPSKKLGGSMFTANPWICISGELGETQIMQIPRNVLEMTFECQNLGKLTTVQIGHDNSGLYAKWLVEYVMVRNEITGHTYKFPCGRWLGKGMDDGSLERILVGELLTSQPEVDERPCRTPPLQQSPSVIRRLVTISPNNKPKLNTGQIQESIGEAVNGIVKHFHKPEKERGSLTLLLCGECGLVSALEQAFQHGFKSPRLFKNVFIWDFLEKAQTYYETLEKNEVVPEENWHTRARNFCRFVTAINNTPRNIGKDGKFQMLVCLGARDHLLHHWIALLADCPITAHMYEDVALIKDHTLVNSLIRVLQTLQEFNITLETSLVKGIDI


How the values were obtained:
Rab8a6-176(GppNHp) = biological target: T1, Rab8a6-176(GppNHp); assay: Competition fluorescence polarization assay (displacement of labelled peptide 25); type: binding; conditions: for Competition with labelled peptide 25 (in words): excess of acetylated peptide added to complex of labelled peptide 25 and Rab8a6-176(GppNHp)
Procedure: Acetylated peptides were serially diluted and incubated with a mixture of the fluorescein-labelled peptide and Rab8a6–176 (GppNHp) at room temperature for 1 h. Fluorescence polarization was determined and IC50 values were calculated by nonlinear regression analysis using Prism 5.0 software (GraphPad)[64].
Rab8a6-176 (GppNHp) was serially diluted in assay buffer and treated with 133 nM fluorescein-labeled peptide. After incubation for 4 h at room temperature the mixture was soaked into capillaries for microscale thermophoresis (MST) measurements. Kd values were calculated after initial fluorescene analysis of the obtained MST curves using the software Monolith Affinity Analysis (NanoTemper Technologies).
Competition fluorescence polarization assay
Acetylated peptides were serially diluted in assay buffer (1:1) and were incubated with a mixture of […] fluorescein-labeled peptide and Rab8a6-176 (GppNHp) (15 µM or 100 µM depending on Kd of the labeled peptide) for 1 h at room temperature.
Fluorescence polarization was dertermined and half maximal inhibitory concentrations (IC50) were calculated by nonlinear regression analysis of dose-response curves using Prism 5.0 software (GraphPad).5

peptide 28 = biological target: T2, peptide 28; assay: fluorescence polarization

IC50 (Rab8a6-176(GppNHp); acetylated peptide as competitor, fluorescein-labelled peptide 25 (60 nM) bound to Rab8a(GppNHp) 15 μM, 1 h room temperature, triplicates, errors 1σ) [µM]	Competition with labelled peptide 25 (in words) (Rab8a6-176(GppNHp))	Kd (peptide 28) [µM]	Molecule
33	full displacement of peptide 25	–	CC(=O)N[C@@H](CC(=O)O)C(=O)N[C@@H](CC(=O)O)C(=O)N[C@@H](CCC(=O)O)C(=O)N[C@@]1(C)CCC/C=C\CCC[C@@](C)(C(=O)N[C@@H](Cc2ccc(O)cc2)C(=O)N[C@@H](Cc2c[nH]cn2)C(=O)N[C@@H](CC(C)C)C(=O)N[C@@H](CC(C)C)C(=O)N[C@@H](CO)C(=O)N[C@@H](Cc2ccccc2)C(=O)N[C@@H](CC(N)=O)C(=O)N[C@@H](C)C(=O)N[C@H](C(N)=O)C(C)C)NC(=O)[C@H](Cc2ccccc2)NC(=O)[C@H](CCC(N)=O)NC(=O)[C@H](CCC(=O)O)NC1=O [acetylated StRIP3] (Ac-DDE[S5]EQF[S5]YHLLSFNAV-NH2; staple (Z) 4-8; C-terminus assumed)
–	does not compete with peptide 25	–	CC(=O)N[C@@H](CC(=O)O)C(=O)N[C@@H](CC(=O)O)C(=O)N[C@@H](CCC(=O)O)C(=O)N[C@@H](CCCCN)C(=O)N[C@@H](CCC(=O)O)C(=O)N[C@@H](CCC(N)=O)C(=O)N[C@@H](Cc1ccccc1)C(=O)N[C@@H](CC(C)C)C(=O)N[C@@H](Cc1ccc(O)cc1)C(=O)N[C@@H](Cc1c[nH]cn1)C(=O)N[C@@H](CC(C)C)C(=O)N[C@@H](CC(C)C)C(=O)N[C@@H](CO)C(=O)N[C@@H](Cc1ccccc1)C(=O)N[C@@H](CC(N)=O)C(=O)N[C@@H](C)C(=O)N[C@H](C(N)=O)C(C)C [wt-R6IP] (Ac-DDEKEQFLYHLLSFNAV-NH2; N-terminus and C-terminus assumed)
–	–	9.6	Rab8a 6-176 (protein, GppNHp-bound Rab8a; bicyclic alkyne/olefin crosslinked StRIP3 derivative, fluorescein-PEG label) DYLFKLLLIGDSGVGKTCVLFRFSEDAFNSTFISTIGIDFKIRTIELDGKRIKLQIWDTAGQERFRTITTAYYRGAMGIMLVYDITNEKSFDNIRNWIRNIEEHASADVEKMILGNKCDVNDKRQVSKERGEKLALDYGIKFMETSAKANINVENAFFTLARDIKAKMDKK
